Measurements reported in patent publication US20090181963A1, “3H-[1,2,3]TRIAZOLO[4,5-D]PYRIMIDINE COMPOUNDS, THEIR USE AS mTOR KINASE AND PI3 KINASE INHIBITORS, AND THEIR [sequence]” (Wyeth, priority 2008, published 2009).

What was measured:
PI3 Kinase γ = PI3 Kinase γ (Homo sapiens, UniProt P48736); experiment: Fluorescence polarization assay for PI3K (PI3 Kinase γ); format: biochemical; details: diC8-PI(4,5)P2 substrate, 25 μM ATP, one hour at 25° C.
PI3 Kinase α = PI3 Kinase α (Homo sapiens, UniProt P42336); experiment: Fluorescence polarization assay for PI3K (PI3 Kinase α); format: biochemical; details: diC8-PI(4,5)P2 substrate, 25 μM ATP, one hour at 25° C.
PI3 Kinase α, sequence (P42336 whole entry): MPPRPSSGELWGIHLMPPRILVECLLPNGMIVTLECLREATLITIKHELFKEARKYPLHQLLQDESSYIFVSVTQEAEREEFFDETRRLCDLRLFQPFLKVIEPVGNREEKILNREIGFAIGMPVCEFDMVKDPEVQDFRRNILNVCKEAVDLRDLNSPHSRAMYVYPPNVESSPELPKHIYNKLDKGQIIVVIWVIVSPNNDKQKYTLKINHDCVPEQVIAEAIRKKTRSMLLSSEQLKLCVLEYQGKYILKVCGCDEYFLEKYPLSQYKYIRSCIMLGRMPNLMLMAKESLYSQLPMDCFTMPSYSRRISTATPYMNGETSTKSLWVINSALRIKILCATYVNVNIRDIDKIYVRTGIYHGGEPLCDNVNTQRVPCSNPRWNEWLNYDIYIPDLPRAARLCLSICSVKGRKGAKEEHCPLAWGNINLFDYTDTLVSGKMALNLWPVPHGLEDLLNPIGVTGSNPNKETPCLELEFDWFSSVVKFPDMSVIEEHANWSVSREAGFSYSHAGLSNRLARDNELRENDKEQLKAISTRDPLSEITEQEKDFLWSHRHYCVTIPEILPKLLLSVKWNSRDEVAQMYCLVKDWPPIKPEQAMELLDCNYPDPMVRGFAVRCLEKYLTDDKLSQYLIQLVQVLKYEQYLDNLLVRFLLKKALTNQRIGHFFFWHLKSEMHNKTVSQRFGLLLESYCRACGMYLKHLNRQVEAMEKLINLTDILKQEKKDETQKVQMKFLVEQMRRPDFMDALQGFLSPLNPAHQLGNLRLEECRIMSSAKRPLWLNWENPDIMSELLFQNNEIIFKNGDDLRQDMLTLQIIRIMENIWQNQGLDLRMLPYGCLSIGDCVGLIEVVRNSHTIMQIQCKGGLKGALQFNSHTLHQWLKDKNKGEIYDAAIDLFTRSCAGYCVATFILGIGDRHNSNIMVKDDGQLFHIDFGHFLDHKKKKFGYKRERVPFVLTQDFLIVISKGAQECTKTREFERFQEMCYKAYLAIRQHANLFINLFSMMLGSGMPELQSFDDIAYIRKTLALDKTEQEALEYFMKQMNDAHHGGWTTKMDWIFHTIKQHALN
PI3 Kinase α, sequence (P27986 whole entry partner): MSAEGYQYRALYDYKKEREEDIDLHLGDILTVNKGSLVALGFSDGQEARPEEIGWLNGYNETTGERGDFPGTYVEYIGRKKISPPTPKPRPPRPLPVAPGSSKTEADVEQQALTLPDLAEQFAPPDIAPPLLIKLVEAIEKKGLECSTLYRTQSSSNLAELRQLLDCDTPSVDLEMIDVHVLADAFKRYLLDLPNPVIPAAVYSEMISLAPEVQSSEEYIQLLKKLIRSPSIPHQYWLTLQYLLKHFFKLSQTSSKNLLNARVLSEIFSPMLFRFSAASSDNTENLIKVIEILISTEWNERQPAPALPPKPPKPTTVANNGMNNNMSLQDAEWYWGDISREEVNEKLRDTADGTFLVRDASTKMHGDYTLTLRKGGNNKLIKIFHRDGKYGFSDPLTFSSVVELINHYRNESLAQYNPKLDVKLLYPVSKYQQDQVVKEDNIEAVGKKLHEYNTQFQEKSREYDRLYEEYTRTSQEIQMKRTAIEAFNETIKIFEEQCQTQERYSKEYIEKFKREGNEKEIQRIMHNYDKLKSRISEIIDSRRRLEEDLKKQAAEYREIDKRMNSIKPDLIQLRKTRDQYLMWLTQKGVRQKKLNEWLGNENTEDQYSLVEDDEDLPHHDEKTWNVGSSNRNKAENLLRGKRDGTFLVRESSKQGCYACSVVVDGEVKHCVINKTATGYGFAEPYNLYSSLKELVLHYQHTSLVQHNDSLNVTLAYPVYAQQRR
Procedure: Nunc 384 well black polypropylene fluorescent plates were used for PI3K assays. Reactions were quenched by the addition of EDTA to a final concentration of 10 μM. Final reaction volumes were 10 ml. […] Reactions were allowed to proceed for one hour at 25° C. After I hour, GST-tagged GRP1 (general receptor for phosphoinositides) PH domain fusion protein was added to a final concentration of 100 nM, and BODIPY-TMRI(1,3,4,5)P4 (Echelon) was also added to a final concentration of 5 nM. Final sample volumes were 25 μl with a final DMSO concentration of 0.8%. Assay Plates were read on PerkinElmer Envision plate readers with appropriate filters for Tamra [BODIPY-TMRI(1,3,4,5)P4]. Data obtained were used to calculate enzymatic activity and enzyme inhibition by inhibitor compounds.

PI3 Kinase γ, sequence (P48736 whole entry): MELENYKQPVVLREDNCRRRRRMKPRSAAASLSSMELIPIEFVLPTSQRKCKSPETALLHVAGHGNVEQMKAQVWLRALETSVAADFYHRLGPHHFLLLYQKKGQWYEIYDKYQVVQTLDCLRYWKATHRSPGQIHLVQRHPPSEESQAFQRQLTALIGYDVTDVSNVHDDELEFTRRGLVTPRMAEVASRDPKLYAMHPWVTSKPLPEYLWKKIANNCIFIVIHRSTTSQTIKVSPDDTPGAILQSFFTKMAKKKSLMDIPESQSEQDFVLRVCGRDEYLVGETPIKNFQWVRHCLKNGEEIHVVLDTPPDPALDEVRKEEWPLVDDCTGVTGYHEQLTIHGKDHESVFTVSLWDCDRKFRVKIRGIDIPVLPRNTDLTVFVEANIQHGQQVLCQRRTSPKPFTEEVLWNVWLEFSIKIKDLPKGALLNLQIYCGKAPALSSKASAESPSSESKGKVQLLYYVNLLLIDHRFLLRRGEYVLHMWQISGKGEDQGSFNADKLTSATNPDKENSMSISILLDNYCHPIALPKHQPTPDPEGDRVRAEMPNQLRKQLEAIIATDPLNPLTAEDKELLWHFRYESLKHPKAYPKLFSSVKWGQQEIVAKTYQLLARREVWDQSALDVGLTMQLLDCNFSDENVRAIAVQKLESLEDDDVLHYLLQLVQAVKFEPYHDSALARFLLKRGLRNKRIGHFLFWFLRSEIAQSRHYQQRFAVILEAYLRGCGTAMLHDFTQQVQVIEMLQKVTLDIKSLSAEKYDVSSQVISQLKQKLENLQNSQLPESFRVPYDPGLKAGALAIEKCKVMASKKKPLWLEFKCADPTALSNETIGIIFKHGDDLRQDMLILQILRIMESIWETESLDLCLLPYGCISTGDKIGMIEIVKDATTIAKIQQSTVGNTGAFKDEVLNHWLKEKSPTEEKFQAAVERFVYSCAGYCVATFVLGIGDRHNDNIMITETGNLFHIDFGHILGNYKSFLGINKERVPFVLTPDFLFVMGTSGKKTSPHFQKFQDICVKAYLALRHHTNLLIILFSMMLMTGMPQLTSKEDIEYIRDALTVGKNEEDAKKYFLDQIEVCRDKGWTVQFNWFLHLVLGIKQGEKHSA

Row | SMILES | IC50 (PI3 Kinase γ) [nM] | IC50 (PI3 Kinase α) [nM]
1 | CCn1nnc2c(N3CCOCC3)nc(-c3ccc(NC(=O)Nc4ccc(C(=O)NCCc5ccccn5)cc4)cc3)nc21 [Example 63, 4-({[4-(3-ethyl-7-morpholin-4-yl-3H-[1,2,3]triazolo[4,5-d]pyrimidin-5-yl)phenyl]carbamoyl}amino)-N-(2-pyridin-2-ylethyl)benzamide] | 30 | 4.5
2 | Oc1cccc(-c2nc(N3CCOCC3)c3nnn(CCc4ccccn4)c3n2)c1 [Example 196, 3-[7-Morpholin-4-yl-3-(2-pyridin-2-yl-ethyl)-3H-[1,2,3]triazolo[4,5-d]pyrimidin-5-yl]-phenol] | 1060 | 75.5
3 | O=C(NCC(O)c1ccccc1)c1ccc(Cn2nnc3c(N4CCOCC4)nc(-c4cccc(O)c4)nc32)cc1 (centres unmarked) [Example 226, N-(2-hydroxy-2-phenylethyl)-4-{[5-(3-hydroxyphenyl)-7-morpholin-4-yl-3H-[1,2,3]triazolo[4,5-d]pyrimidin-3-yl]methyl}benzamide] | 958 | 126
4 | CCNC(=O)c1ccc(NC(=O)Nc2ccc(-c3nc(N4CCOCC4)c4nnn(CC)c4n3)cc2)cc1 [Example 64, N-ethyl-4-({[4-(3-ethyl-7-morpholin-4-yl-3H-[1,2,3]triazolo[4,5-d]pyrimidin-5-yl)phenyl]carbamoyl}amino)benzamide] | 15.5 | 3.3
5 | Oc1cccc(-c2nc(N3CCOCC3)c3nnn(CCN4CCN(Cc5cccnc5)CC4)c3n2)c1 [Example 111, 3-(7-morpholin-4-yl-3-{2-[4-(pyridin-3-ylmethyl)piperazin-1-yl]ethyl}-3H-[1,2,3]triazolo[4,5-d]pyrimidin-5-yl)phenol] | 2290 | 439
6 | Oc1cncc(-c2nc(N3CCOCC3)c3nnn(C4CCN(Cc5ccc(F)cc5)CC4)c3n2)c1 [Example 14, 5-{3-[1-(4-fluorobenzyl)piperidin-4-yl]-7-morpholin-4-yl-3H-[1,2,3]triazolo[4,5-d]pyrimidin-5-yl}pyridin-3-ol] | 94 | 60
7 | O=C(O)Cn1nnc2c(N3CCOCC3)nc(-c3cccc(O)c3)nc21 [Example 245, [5-(3-hydroxyphenyl)-7-morpholin-4-yl-3H-[1,2,3]triazolo[4,5-d]pyrimidin-3-yl]acetic acid] | 1940 | 298
8 | C[C@H](NC(=O)c1ccc(Cn2nnc3c(N4CCOCC4)nc(-c4cccc(O)c4)nc32)cc1)c1ccccc1 [Example 224, 4-{[5-(3-hydroxyphenyl)-7-morpholin-4-yl-3H-[1,2,3]triazolo[4,5-d]pyrimidin-3-yl]methyl}-N-[(1S)-1-phenylethyl]benzamide] | 1910 | 90
9 | OCc1cncc(-c2nc(N3CCOCC3)c3nnn(C4CCN(Cc5ccccc5)CC4)c3n2)c1 [Example 173, {5-[3-(1-benzylpiperidin-4-yl)-7-morpholin-4-yl-3H-[1,2,3]triazolo[4,5-d]pyrimidin-5-yl]pyridin-3-yl}methanol] | 1850 | 570
10 | CCCCN1CCC(n2nnc3c(N4CCOCC4)nc(-c4cncc(O)c4)nc32)CC1 [Example 27, 5-[3-(1-butylpiperidin-4-yl)-7-morpholin-4-yl-3H-[1,2,3]triazolo[4,5-d]pyrimidin-5-yl]pyridin-3-ol] | 2530 | 385
11 | O=C(c1ccc(Cn2nnc3c(N4CCOCC4)nc(-c4cccc(O)c4)nc32)cc1)N1CCCC1 [Example 228, 3-{7-morpholin-4-yl-3-[4-(pyrrolidin-1-ylcarbonyl)benzyl]-3H-[1,2,3]triazolo[4,5-d]pyrimidin-5-yl}phenol] | 544 | 911
12 | CNC(=O)Nc1ccc(-c2nc(N3CCOCC3)c3nnn(C4CCN(C(=O)OC(C)(C)C)CC4)c3n2)cc1 [Example 168, tert-butyl 4-(5-{4-[(methylcarbamoyl)amino]phenyl}-7-morpholin-4-yl-3H-[1,2,3]triazolo[4,5-d]pyrimidin-3-yl)piperidine-1-carboxylate] | 3240 | 200
13 | O=C(c1cccc(-n2nnc3c(N4CCOCC4)nc(-c4cccc(O)c4)nc32)c1)N1CCC(N2CCCC2)CC1 [Example 120, 3-(7-morpholin-4-yl-3-{3-[(4-pyrrolidin-1-ylpiperidin-1-yl)carbonyl]phenyl}-3H-[1,2,3]triazolo[4,5-d]pyrimidin-5-yl)phenol] | 290 | 15.5
14 | OCc1cccc(-c2nc(N3CCOCC3)c3nnn(C4CCN(Cc5ccccc5)CC4)c3n2)c1 [Example 177, {3-[3-(1-benzylpiperidin-4-yl)-7-morpholin-4-yl-3H-[1,2,3]triazolo[4,5-d]pyrimidin-5-yl]phenyl}methanol] | 435 | 83.5
15 | CCn1nnc2c(N3CCOCC3)nc(-c3ccc(NC(=O)Nc4ccc(C(=O)NCCO)cc4)cc3)nc21 [Example 46, 4-({[4-(3-ethyl-7-morpholin-4-yl-3H-[1,2,3]triazolo[4,5-d]pyrimidin-5-yl)phenyl]carbamoyl}amino)-N-(2-hydroxyethyl)benzamide] | 14.5 | 2.8
16 | CCn1nnc2c(N3CCOC[C@@H]3C)nc(-c3ccc(N)cc3)nc21 [Example 67, (S)-4-(3-ethyl-7-(3-methylmorpholino)-3H-[1,2,3]triazolo[4,5-d]pyrimidin-5-yl)aniline] | > 10000 | 2140
17 | Cn1cncc1CN1CCC(n2nnc3c(N4CCOCC4)nc(-c4cncc(O)c4)nc32)CC1 [Example 24, 5-(3-{1-[(1-methyl-1H-imidazol-5-yl)methyl]piperidin-4-yl}-7-morpholin-4-yl-3H-[1,2,3]triazolo[4,5-d]pyrimidin-5-yl)pyridin-3-ol] | 219 | 86
18 | CCn1nnc2c(N3CCOCC3)nc(-c3ccc(NC(=O)NCCN(C)C)cc3)nc21 [Example 34, 1-[2-(dimethylamino)ethyl]-3-[4-(3-ethyl-7-morpholin-4-yl-3H-[1,2,3]triazolo[4,5-d]pyrimidin-5-yl)phenyl]urea] | 309 | 132
19 | CCn1nnc2c(N3CCOCC3)nc(-c3ccc(NC(=O)Nc4ccc(C(=O)NCc5ccncc5)cc4)cc3)nc21 [Example 51, 4-({[4-(3-ethyl-7-morpholin-4-yl-3H-[1,2,3]triazolo[4,5-d]pyrimidin-5-yl)phenyl]carbamoyl}amino)-N-(pyridin-4-ylmethyl)benzamide] | 31 | 3.6
20 | Oc1cccc(-c2nc(N3CCOCC3)c3nnn(CCCCN4CCCC4)c3n2)c1 [Example 205, 3-[7-Morpholin-4-yl-3-(4-pyrrolidin-1-ylbutyl)-3H-[1,2,3]triazolo[4,5-d]pyrimidin-5-yl]phenol] | 1210 | 332
21 | O=C(Nc1ccc(-c2nc(N3CCOCC3)c3nnn(C4CCN(Cc5ccccc5)CC4)c3n2)cc1)Nc1cccc(Cl)c1 [Example 170, 1-{4-[3-(1-benzylpiperidin-4-yl)-7-morpholin-4-yl-3H-[1,2,3]triazolo[4,5-d]pyrimidin-5-yl]phenyl}-3-(3-chlorophenyl)urea] | 10400 | 5630
22 | CCn1nnc2c(N3CCOCC3)nc(-c3ccc(NC(=O)Nc4ccnc(C)c4)cc3)nc21 [Example 35, 1-[4-(3-ethyl-7-morpholin-4-yl-3H-[1,2,3]triazolo[4,5-d]pyrimidin-5-yl)phenyl]-3-(2-methylpyridin-4-yl)urea] | 37 | 8
